Test results taken from paper PMC12661400, “Oral bioavailable ITRI-148 degrades androgen receptor variants and overcomes antiandrogen resistance in advanced prostate cancer” (Neoplasia (New York, N.Y.), 2025).

Assays:
[1] = Metabolic stability in mouse liver microsomes; assay type: in vitro ADME
Description: (§1) The metabolic stability of all PROTAC compounds in the screening phase (Table 1) was evaluated using mouse liver microsomes. Incubations were performed at 37 °C in phosphate buffer (pH 7.4) containing NADPH (1 mM), 0.5 mg/mL microsomal protein and 1 μM ITRI-148 (0.25 % DMSO) for 0, 5, 20, or 30 minutes, followed by quenching with acetonitrile (1:3, v/v) for HPLC analysis. To evaluate the species-specific metabolism of ITRI-148, its stability was assessed in liver microsomes from human, dog, rat, and mouse using same incubation conditions as above, with the time extending to 0, 15, 30, 45, and 60 minutes, followed by acetonitrile quenching (1:10) and LC-MS/MS analysis.

VCaP xenografts = assay: Castrated VCaP xenograft study; assay type: in vivo; conditions: for tumor growth inhibition (TGI): castrated mice
Excerpt: Immunodifficient male CB-17 SCID mice (CB17/Icr-Prkdc^scid/IcrIcoCrlBltw) and NOD SCID mice (NOD.CB17-Prkdc^scid/NCrCrlBltw) mice at four to six weeks of age were purchased from BioLASCO Taiwan Co., Ilan, Taiwan. All mice were housed in conventional cages in the AAALAC Full Accreditation (2011) in Industrial Technology Research Institute and were allowed to acclimatize and recover from shipping-related stress for one week prior to the study. The health of the mice was monitored by daily observations. Animals were kept in rooms at temperature of 22–26°C with 40–70 % humidity, positive pressure, 60 % air recirculation, ventilation rate 15–20 changes per hour, and a controlled light-dark cycle (12–12 hours). The order and location of each animal cage was randomly assigned to minimize potential confounders. CWR22Rv1 cells (5 × 10^6) were suspended in 100 μL of PBS with 30 % Matrigel and subcutaneously implanted into the right flank of male CB-17 SCID mice. Tumors were measured with calipers, and tumor size was calculated as follows: tumor volume (V) = (L × S^2)/2 (L, longest diameter, mm; S, shortest diameter, mm). When mean tumor volume reached 150–200 mm^3, the mice were randomly assigned into indicated groups (n = 5-6/ group) and the day of initiating treatments was assigned as day 0. VCaP cells (5 × 10⁶) suspended in 50 % Matrigel were subcutaneously implanted into male NOD SCID mice. Once tumors reached approximately 250 mm³, castration surgery was performed. After tumor regression and subsequent regrowth to around 250 mm³, treatment with ITRI-148 was initiated. Oral (PO) gavage was used for the drug administration, including vehicle control and ITRI-148 treatments (7.5 mg/kg, 15 mg/kg, 30 mg/kg, or 60 mg/kg, BID). Tumor size and body weight of the animals were monitored and recorded two to three times per week. Mice were sacrificed when one of the tumor reached over 1000 mm^3 in size. Tumors were collected and immediately subjected to liquid nitrogen freezing and homogenization. The homogenized tumor samples were stored at −80°C for subsequent western blotting analysis. The drug antitumor efficacy was presented as percentages of TGI of each tested animal, calculated as follows: [1 − (final tumor volume ^treated group – initial tumor volume ^treated group) / (final tumor volume ^vehicle group – initial tumor volume ^vehicle group)] × 100. Body weight of each mouse was also compared to that on the first day of treatment (day 0) and expressed as a percentage of day 0 value. All data points were included for calculation and the values are presented as mean ± SEM. Statistical analysis of the differences between two drug and vehicle treated groups was determined by two-tailed Student’s t-test.

[2] = Metabolic stability in liver microsomes; assay type: in vitro ADME; conditions: for Remaining of intact drug (%): 1 μM, incubation up to 60 minutes; for half-life at 1 μM: pH 7.4, read-out: Plasma Stability t1/2 (microsome panel)
Description: as §1

[3] = Repeated-dose toxicity study: serum clinical chemistry; assay type: in vivo, Sprague-Dawley rats; conditions: rat serum
Description: Repeated-dose toxicity and toxicokinetic studies
Repeated-dose oral toxicity study and toxicokinetic (TK) profiling was conducted in Sprague-Dawley rats. ITRI-148 was administered once daily using oral gavage at doses of 100, 300, 600, and 1000 mg/kg/day for 7 consecutive days, followed by a 7-day recovery period. Each dose group comprised 3 animals designated for toxicokinetic (TK) analysis and 6 animals for dose-range finding (DRF) evaluation. Clinical observations, body weights, and food consumption were monitored daily throughout the dosing and recovery periods. […]
All samples were analyzed in duplicate. Hematology and serum clinical chemistry analyses were performed on Day 7 (end of dosing) and Day 14 (end of recovery). […]
All procedures were conducted in compliance with institutional animal care and use guidelines. […]
Targeting androgen receptor and the variants by an orally bioavailable
Proteolysis Targeting Chimeras compound in castration resistant prostate cancer

[4] = PO 100 mg/kg/day 7 days, Day 14 (recovery)
[5] = PO 300 mg/kg/day 7 days, Day 14 (recovery)
[6] = PO 600 mg/kg/day 7 days, Day 14 (recovery)
[7] = PO 1000 mg/kg/day 7 days, Day 7
[8] = PO 1000 mg/kg/day 7 days, Day 14 (recovery)

O=C1CCC(N2C(=O)c3cccc(NCC(=O)N4CCC(N5CCC(C#Cc6ccc(C7CCN(C8=Nn9c(nnc9C(F)(F)F)CC8)CC7)cc6)CC5)CC4)c3C2=O)C(=O)N1 (stereo not drawn) [ITRI-148]
Remaining of intact drug (%) ([1]; mice liver microsomes, 1 μM, incubation up to 60 minutes): 80.7 ± 1.8%
remaining at 0.5 h, 1 μM ([1]; mouse, liver microsomes, pH 7.4, mice microsomes, 30 min of incubation, read-out: Microsome stability (% remaining)): 97.2%
half-life at 1 μM ([1]; mouse, pH 7.4, mice liver microsomes, read-out: Plasma Stability t1/2 (microsome panel)): > 1 h
toxicity reflected by weight-loss of the animals (VCaP xenografts; PO 7.5-30 mg/kg BID): No toxicity reflected by weight-loss of the animals was observed
tumor growth inhibition (TGI) (VCaP xenografts; PO 7.5 mg/kg BID): 49.06%
tumor growth inhibition (TGI) (VCaP xenografts; PO 15 mg/kg BID): 95.08%
tumor growth inhibition (TGI) (VCaP xenografts; PO 30 mg/kg BID, average): 147.07%
Remaining of intact drug (%) ([2]; dog liver microsomes): 88.3 ± 4.3%
Remaining of intact drug (%) ([2]; human liver microsomes): 85.9 ± 2.2%
half-life at 1 μM ([2]; dog liver microsomes): > 1 h
half-life at 1 μM ([2]; human liver microsomes): > 1 h
half-life at 1 μM ([2]; rat liver microsomes): > 1 h
Remaining of intact drug (%) ([2]; rat liver microsomes): 75.3 ± 1.2%
ALT ([3]; PO 100 mg/kg/day 7 days, Day 7): 102.3 ± 40.6 U/L
AST ([3]; PO 100 mg/kg/day 7 days, Day 7): 188.7 ± 59 U/L
BUN ([3]; PO 100 mg/kg/day 7 days, Day 7): 17.73 ± 2.8 mg/dL
CRE ([3]; PO 100 mg/kg/day 7 days, Day 7): 0.63 ± 0.06 mg/dL
ALT [3, 4]: 84.3 ± 31.6 U/L
AST [3, 4]: 136.7 ± 10.4 U/L
BUN [3, 4]: 13.23 ± 1.12 mg/dL
CRE [3, 4]: 0.4 ± 0.1 mg/dL
ALT ([3]; PO 300 mg/kg/day 7 days, Day 7): 85.3 ± 10 U/L
AST ([3]; PO 300 mg/kg/day 7 days, Day 7): 177 ± 37.4 U/L
BUN ([3]; PO 300 mg/kg/day 7 days, Day 7): 20.53 ± 2.06 mg/dL
CRE ([3]; PO 300 mg/kg/day 7 days, Day 7): 0.63 ± 0.06 mg/dL
ALT [3, 5]: 60.7 ± 7.1 U/L
AST [3, 5]: 122 ± 5.3 U/L
BUN [3, 5]: 10.9 ± 1.13 mg/dL
CRE [3, 5]: 0.33 ± 0.06 mg/dL
ALT ([3]; PO 600 mg/kg/day 7 days, Day 7): 76.7 ± 2.1 U/L
AST ([3]; PO 600 mg/kg/day 7 days, Day 7): 196 ± 66 U/L
BUN ([3]; PO 600 mg/kg/day 7 days, Day 7): 21.8 ± 1.81 mg/dL
CRE ([3]; PO 600 mg/kg/day 7 days, Day 7): 0.57 ± 0.06 mg/dL
ALT [3, 6]: 69.3 ± 11.5 U/L
AST [3, 6]: 170 ± 41.7 U/L
BUN [3, 6]: 13.03 ± 0.83 mg/dL
CRE [3, 6]: 0.47 ± 0.06 mg/dL
ALT [3, 7]: 68 ± 15.4 U/L
AST [3, 7]: 132.7 ± 14.5 U/L
BUN [3, 7]: 16.77 ± 2.32 mg/dL
CRE [3, 7]: 0.57 ± 0.06 mg/dL
ALT [3, 8]: 94.3 ± 41.2 U/L
AST [3, 8]: 150.3 ± 43 U/L
BUN [3, 8]: 16.23 ± 4.71 mg/dL
CRE [3, 8]: 0.37 ± 0.06 mg/dL
